Experiment [1] deals with TNF-α (TNF-alpha) production in human PBMC (peripheral blood mononuclear cells). The experiment in a line: Inhibition of TNF-alpha production in human PBMC assay (MSD technology). The class given is cell-based. As to conditions: Homo sapiens, PBMC, LPS stimulated, measured and/or mean of n measurements, read-out: PBMC pIC50 (MSD assay), inhibition of TNF-α production (converted). As to the method: A 96-well plate (96 MicroWell™ Plates Nunclon™Δ-High Flange Design, Fisher Scientific UK, Bishop Meadow Road, Loughborough LE 11 5 RG, Leicestershire, UK) is prepared by initially adding to column 1 ca. 10 mM of test compound dissolved in DMSO. […] The compound is further diluted with DMSO into columns 2 to 9 by 8 successive 3-fold dilutions using the Biomek® FX Laboratory Automation Workstation (Beckman Coulter, Inc., 4300 N. Harbor Boulevard, P.O. Box 3100, Fullerton, Calif. 92834-3100, USA). Column 10 is used as a DMSO negative control (High Signal, 0% response), whilst column 11, which contains 10 mM of the PDE4 inhibitor roflumilast, is used as a positive control (Low Signal, 100% response). About 1 μl (about 1 ul) of compound is transferred to the compound plate using the Biomek® FX.
PBMC cells (peripheral blood mononuclear cells) are prepared from heparinised human blood (using 1% v/v Heparin Sodium 10001 U/ml Endotoxin Free, Leo Laboratories Ltd., Cashel Road, Dublin 12. Ireland, Cat No: PL0043/0149) from normal volunteers using the Accuspin™ System-Histopaque®-1077 essentially (Sigma-Aldrich Company Ltd., The Old Brickyard New Rd, Gillingham, Dorset SP8 4XT, UK). About 20 ml of blood is overlaid onto 15 ml Histopaque® in Accuspin™ tubes. The tube is then centrifuged at about 800 g for ca. 20 minutes. The cells are collected from the interface, washed by centrifugation (ca. 1300 g, ca. 10 minutes) and resuspended in RPMI1640 medium (Low endotoxin RPMI1640 medium, Cat No: 31870-025, Invitrogen Corporation Invitrogen Ltd, 3 Fountain Drive, Inchinnan Business Park, Paisley PA4 9RF, UK) containing 10% foetal calf serum, 1% L-glutamine (Invitrogen Corporation, Cat No: 25030024) and 1% penicillin/streptomycin (Invitrogen Corporation, Cat No: 15140-122). Viable cells are counted by trypan blue staining and diluted to 1×10^6 viable cells/ml. About 50 μl (about 50 ul) of diluted cells and about 75 μl (about 75 ul) of LPS (ca. 1 ng/ml final; Sigma Cat No: L-6386) are added to the compound plate, which is then incubated at 37° C., 5% CO2, for 20 hours.
The supernatant is removed and the concentrations of TNF-α are determined by electrochemiluminescence assay using the Meso Scale Discovery (MSD) technology (Meso Scale Discovery, 9238 Gaither Road, Gaithersburg, Md. 20877, USA). See the “TNF-α (TNF-alpha) MSD Assay” described below for typical details.
For the following Examples, which are compounds of formula (I) or salts thereof, and generally when using the one of the above assays, or a generally similar or generally analogous assay, the measured and/or mean pIC50 values for inhibition of TNF-α (TNF-alpha) production in PBMCs are generally as follows (subject to a possibly-large variability or error):
Using the Biomek FX, 25 μl (25 ul) of MSD Human Serum Cytokine Assay Diluent (Meso Scale Discovery, 9238 Gaither Road, Gaithersburg, Md. 20877) is added to a 96-well High-Bind MSD plate pre-coated with anti-hTNF alpha capture antibody (MA6000) and then incubated for 24 hours at 4° C. to prevent non-specific binding. About 20 μl (ul) of supernatant from the PBMC plate or about 40 μl (ul) of supernatant from the whole blood (WB) plate are then transferred from columns 1-11 to columns 1-11 of the MSD plate using the Biomek FX. About 20 μl (ul) of TNF-α standard (Cat No. 210-TA; R&D Systems Inc., 614 McKinley Place NE, Minneapolis, Minn. 55413, USA) are added to column 12 of the MSD plate to generate a standard calibration curve (about 0 to 30000 pg/ml final).
For the Whole Blood assay, plates are washed after 2 hours shaking with a Skanwasher 300 version B (Skatron Instruments AS. PO Box 8, N-3401 Lier, Norway). About 40 μl (ul) of diluted sulfo-TAG antibody (ca. […] final) is added, the plates are shaken at room temperature for 1 hours, and the plates washed again as above. About 150 μl (ul) of Read Buffer T (2×) is added to the plates, which are then read on a MSD Sector 6000. […]

Experiment [2] addresses T1, PDE4B (human recombinant) (Homo sapiens, UniProt Q07343).
T1 construct: made in house; host or cells: Saccharomyces cerevisiae strain GL62 (PDE-deficient yeast)
The experiment in a line: Inhibition of PDE4B activity (FP and/or SPA assay). The class given is biochemical. To be noted: generally FP assay; one reading or average of n readings; read-out: PDE4B pIC50 (generally in FP assay) (±about 0.5) (converted). The text has this:
Human recombinant PDE4B, in particular the 2B splice variant thereof (HSPDE4B2B), is disclosed in WO 94/20079 and also M. M. McLaughlin et al., “A low Km, rolipram-sensitive, cAMP-specific phosphodiesterase from human brain: cloning and expression of cDNA, biochemical characterisation of recombinant protein, and tissue distribution of mRNA”, J. Biol. Chem., 1993, 268, 6470-6476. For example, in Example 1 of WO 94/20079, human recombinant PDE4B is described as being expressed in the PDE-deficient yeast Saccharomyces cerevisiae strain GL62, e.g. after induction by addition of 150 uM CuSO4, and 100,000×g supernatant fractions of yeast cell lysates are described for use in the harvesting of PDE4B enzyme.
The ability of compounds to inhibit catalytic activity at PDE4B or 4D (human recombinant), PDE3 (from bovine aorta), PDE5 (human recombinant) or PDE6 (from bovine retina) can optionally be determined by Scintillation Proximity Assay (SPA) in a 96-well format.
Test compounds (as a solution in DMSO, suitably about 2 microlitre (ul) volume of DMSO solution) are preincubated at ambient temperature (room temperature, e.g. 19-23° C.) in Wallac Isoplates (code 1450-514) with PDE enzyme in 50 mM Tris-HCl buffer pH 7.5, 8.3 mM MgCl2, 1.7 mM EGTA, 0.05% (w/v) bovine serum albumin for 10-30 minutes (usually 30 minutes). The enzyme concentration is adjusted so that no more than 20% hydrolysis of the substrate defined below occurs in control wells without compound, during the incubation. For the PDE3, PDE4B and PDE4D assays, [5′,8-^3H]Adenosine 3′,5′-cyclic phosphate (Amersham Pharmacia Biotech, code TRK.559; or Amersham Biosciences UK Ltd, Pollards Wood, Chalfont St Giles, Buckinghamshire HP8 4SP, UK) is added to give 0.05uCi per well and about 10 nM final concentration. For the PDE5 and PDE6 assays, [8^−3H]Guanosine 3′,5′-cyclic phosphate (Amersham Pharmacia Biotech, code TRK.392) is added to give 0.05uCi per well and about 36 nM final concentration. Plates containing assay mixture, suitably approx. 100 ul volume of assay mixture, are mixed on an orbital shaker for 5 minutes and incubated at ambient temperature for 1 hour. Phosphodiesterase SPA beads (Amersham Pharmacia Biotech, code RPNQ 0150) are added (about 1 mg per well) to terminate the assay. Plates are sealed and shaken and allowed to stand at ambient temperature for 35 minutes to 1 hour (suitably 35 minutes) to allow the beads to settle. Bound radioactive product is measured using a WALLAC TRILUX 1450 Microbeta scintillation counter. For inhibition curves, 10 concentrations (e.g. 1.5 nM-30 uM) of each compound are assayed. Curves are analysed using ActivityBase and XLfit (ID Business Solutions Limited, 2 Ocean Court, Surrey Research Park, Guildford, Surrey GU2 7QB, United Kingdom) Results are expressed as pIC50 values.
The ability of compounds to inhibit catalytic activity at PDE4B (human recombinant) or PDE4D (human recombinant) can optionally be determined by IMAP Fluorescence Polarisation (FP) assay (IMAP Explorer kit, available from Molecular Devices Corporation, Sunnydale, Calif., USA; Molecular Devices code: R8062) in 384-well format.
The IMAP FP assay is able to measure PDE activity in an homogenous, non-radioactive assay format. The FP assay uses the ability of immobilised trivalent metal cations, coated onto nanoparticles (tiny beads), to bind the phosphate group of Fl-AMP that is produced on the hydrolysis of fluorescein-labelled (Fl) cyclic adenosine mono-phosphate (Fl-cAMP) to the non-cyclic Fl-AMP form. […] Binding of Fl-AMP product to the beads (coated with the immobilised trivalent cations) slows the rotation of the bound Fl-AMP and leads to an increase in the fluorescence polarisation ratio of parallel to perpendicular light. Inhibition of the PDE reduces/inhibits this signal increase. […]

The structures appear in SMILES notation.

T1 sequence (Q07343 1-564 isoform Q07343-2): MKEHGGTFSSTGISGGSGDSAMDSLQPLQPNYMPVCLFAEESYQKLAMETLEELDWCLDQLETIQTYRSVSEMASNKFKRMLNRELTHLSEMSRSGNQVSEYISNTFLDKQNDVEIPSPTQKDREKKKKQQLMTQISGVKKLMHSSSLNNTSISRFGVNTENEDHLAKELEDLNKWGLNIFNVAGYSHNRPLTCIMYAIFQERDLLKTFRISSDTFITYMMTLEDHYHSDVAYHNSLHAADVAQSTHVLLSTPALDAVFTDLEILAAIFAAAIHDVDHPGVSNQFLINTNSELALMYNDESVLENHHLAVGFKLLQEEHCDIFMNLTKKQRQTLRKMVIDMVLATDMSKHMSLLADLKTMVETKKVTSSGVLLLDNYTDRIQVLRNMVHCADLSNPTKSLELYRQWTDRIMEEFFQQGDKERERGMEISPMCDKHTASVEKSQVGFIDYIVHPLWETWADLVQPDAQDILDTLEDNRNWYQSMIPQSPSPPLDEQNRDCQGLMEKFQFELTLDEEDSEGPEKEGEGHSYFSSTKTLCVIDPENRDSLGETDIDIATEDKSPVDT

Consider `CCc1nc2c(cnn2CC)c(NC2CCN(C(N)=O)CC2)c1CNC(=O)c1ccc(CCCCOCCCCN2CCOCC2)cc1` [Example 23, 4-({1,6-diethyl-5-[({[4-(4-{[4-(4-morpholinyl)butyl]oxy}butyl)phenyl]carbonyl}amino)methyl]-1H-pyrazolo[3,4-b]pyridin-4-yl}amino)-1-piperidinecarboxamide], for which the IC50 in experiment [1] is about 0.631 nM; in experiment [2], about 0.0794 nM.
